Tests used:
[1] = test system: co-culture model of human hiPS-BCECs and rat glial cells; set-up: method as in PMID 31690750; conditions: literature value ref 24; cited from earlier work
[2] = test system: hiPS-BCECs; assay: Permeability/transport across hiPS-BCEC barrier in microfluidic Quasi Vivo QV600 setup; conditions: fluidic system; for caffeine concentration, basolateral side: 100 µM caffeine apical
Description: (§6) The microfluidic studies were performed using the commercial Quasi Vivo® QV600 system ([…] ., York, UK). […] On day 10, when the barrier has been established, the membrane containing the blood-brain barrier was inserted into the QV 600 chamber. The apical channel was filled with enriched endothelial medium (heSFM with 5% […] added to the basolateral channel. A fluidic flow with a flow rate of 200 μL min^-1 was established and experiments were performed for up to 4 days. […] For comparison, samples in the static setting were collected at the same time points with a separate insert for each time point. […] Standard dilutions of sample media were used for quantification and sample media from cell wells without sodium fluorescence application were used for background subtraction. All measurements were performed in duplex at least. […] Samples were collected from both the apical and basolateral circuits, filtered using Whatman Mini-UniPrepTM filters (VWR International, […] , Germany) and caffeine concentrations measured using HPLC. […] At a flow rate of 0.4 mL min^-1, 5 μL of sample was injected and separated at a column temperature of 60 °C.

[3] = as above; conditions: human, not told
Description: as §6

[4] = test system: hiPS-BCECs; assay: Permeability/transport across hiPS-derived BCEC monolayer on membrane inserts (static); conditions: for caffeine concentration, basolateral side / caffeine concentration, apical side: Figure 8B (static system), 100 µM caffeine apical; for permeability coefficient: hiPS-BCECs
Description: (§1) The stem cell line UKKi011-A was differentiated according to the protocol published by Stebbins et al. with slight modifications (Figure 2B). Cells were seeded at a density of 5 × 10^3 cells cm^−2 on Matrigel-coated (Corning, Amsterdam, The Netherlands) 6-well plates and cultivated for 3 days in mTeSR1 medium (Stem Cell Technologies, Vancouver, BC, Canada) before initiating the differentiation. On day 0, the mTeSR1 medium was switched to unconditioned medium (DMEM/F12 with 20% knock-out serum replacement, 1% non-essential amino acids, 0.5% GlutaMAX and […] 2-mercaptoethanol) and medium was exchanged daily for 5 days. On day 6, the medium was changed to endothelial medium with growth factors (heSFM with 1% platelet-poor plasma-derived human serum (PDS; SigmaAldrich, Taufkirchen, Germany), 20 ng mL^−1 bFGF (R&D Systems, Minneapolis, MN, USA) and 10 µM retinoic acid (SigmaAldrich, Taufkirchen, Germany)). On day 8, cells were dissociated with Accutase for 25 min at 37 °C and seeded at a density of 1 × 10^6 cells cm^−2 in endothelial medium with growth factors. Cells were seeded onto membrane inserts with 3.0 µm pore size (VWR International, Darmstadt, Germany) and coated with 400 µg mL^−1 human collagen IV (SigmaAldrich, Taufkirchen, Germany) and 100 µg mL^−1 fibronectin (SigmaAldrich, Taufkirchen, Germany) in 0.05% acetic acid. The medium was changed 24 h after seeding to either endothelial medium without growth factors (heSFM with 1% PDS) or enriched endothelial medium (heSFM with 5% PDS) on the apical side and heSFM on the basolateral side. Experiments were performed on day 10 or 11.
(§2) The substances of interest were added to the apical side of the membranes, incubated for 3 h at 37 °C, 5% CO2 and 90% relative humidity, and then the samples were collected from the apical and basolateral compartment for measurement. In the microfluidic setup, sodium fluorescein and caffeine (SigmaAldrich, Taufkirchen, Germany) were added to the apical channel and samples were collected 4, 24, 48 (only caffeine) and 72 h after application from both fluidic channels.
(§3) Sodium fluorescein was added to a final concentration of 1 µg mL^−1, the samples were transferred to black 96-well plates and fluorescence was measured at an excitation of 485 nm and emission of 535 nm with a Tecan infinite 200 plate reader (Tecan Group Ltd., Männedorf, Switzerland).
(§4) After incubation, the apical and basolateral medium were collected separately, transferred to plastic vials containing 5 mL Ultima Gold scintillation liquid (Perkin Elmer, Waltham, MA, USA) and radioactive decay was measured with a Tri-Carb 2910TR Scintillation counter (Perkin Elmer, Waltham, MA, USA).
(§5) Caffeine was added to a final concentration of 100 µM to the apical circuit. […] Detection was achieved using a Diode-Array-Detector (DAD) at a wavelength of 275 nm.

[5] = as above; conditions: human
Description: as §1, §2, §3, §4, §5

[6] = test system: pBCECs; assay: Permeability across primary porcine BCEC monolayer on Transwell inserts (static); type: in vitro ADME, Sus scrofa domestica; conditions: 3 h incubation
Description: The substances of interest were added to the apical side of the membranes, incubated for 3 h at 37 °C, 5% CO2 and 90% relative humidity, and then the samples were collected from the apical and basolateral compartment for measurement.

[7] = static, established protocol / equal serum distribution (1% PDS both sides), apical application, 3 h incubation
[8] = static, serum only in apical medium (5% PDS apical, serum-free basolateral), 3 h incubation

| Compound | permeability coefficient, literature value [1] | caffeine concentration, basolateral side ([2]; 4 h) [µM] | caffeine concentration, basolateral side ([2]; 24 h) [µM] | caffeine concentration, basolateral side ([2]; 48 h) [µM] | caffeine concentration, basolateral side ([2]; 72 h) [µM] | Papp at 100 µM [3] [×10⁻⁶ cm/s] | caffeine concentration, basolateral side ([4]; 4 h) [µM] | caffeine concentration, apical side ([4]; 24 h) [µM] | caffeine concentration, basolateral side ([4]; 24 h) [µM] | caffeine concentration, apical side ([4]; 48 h) [µM] | caffeine concentration, basolateral side ([4]; 48 h) [µM] | Papp at 100 µM [5] [×10⁻⁶ cm/s] | permeability coefficient ([6]; 5% FCS apical, serum-free basolateral) [×10⁻⁶ cm/s] | permeability coefficient ([6]; established protocol (serum-free medium on both sides), apical application) [×10⁻⁶ cm/s] | permeability coefficient ([2]; hiPS-BCECs, flow 200 µL min^−1, 5% PDS apical, serum-free basolateral) | permeability coefficient ([4]; static system compared with fluidic, 5% PDS apical, serum-free basolateral) | permeability coefficient [4, 7] [cm/s] | permeability coefficient [4, 8] [cm/s] |
| --- | --- | --- | --- | --- | --- | --- | --- | --- | --- | --- | --- | --- | --- | --- | --- | --- | --- | --- |
| Cn1c(=O)c2c(ncn2C)n(C)c1=O [caffeine] | 3.1 × 10^–5 cm s^−1 | 5.91 ± 3.36 | 14.85 ± 3.50 | 17.08 ± 4.44 | 17.72 ± 3.34 | 30.4 | 24.46 ± 1.90 | 36.30 ± 2.71 | 36.19 ± 3.18 | 37.74 ± 3.02 | 37.97 ± 2.88 | 9 | – | – | – | – | – | – |
| O=C([O-])c1ccccc1-c1c2ccc(=O)cc-2oc2cc([O-])ccc12.[Na+].[Na+] [sodium fluorescein] | – | – | – | – | – | – | – | – | – | – | – | – | 0.62 | 1.85 | 2.75 × 10^–6 ± 1.61 × 10^–6 cm s^−1 | 0.81 × 10^–6 ± 0.82 × 10^–7 cm s^−1 | 1.41e-06 | 8e-07 |
| inulin [[14C]-inulin] | – | – | – | – | – | – | – | – | – | – | – | – | – | – | – | – | 3.19e-06 | 8.9e-07 |
